Series [1] is described as follows: Half life in rat at 10 umol/kg, iv. To be noted: in vivo. The format is ADME, organism-based.
A short description of series [2]: Half life in dog at 10 umol/kg, iv. The format is ADME, organism-based, Canis lupus familiaris. To be noted: in vivo.
Series [3] is described as follows: Volume of distribution in rat at 10 umol/kg, iv. The format is ADME, organism-based. Particulars: in vivo, read-out: Vbeta.
A short description of series [4]: Volume of distribution in dog at 10 umol/kg, iv. The format is ADME, organism-based, Canis lupus familiaris. To be noted: in vivo, read-out: Vbeta.
The nature of series [5]: Plasma clearance in rat at 10 umol/kg, iv. The format is ADME, organism-based.
The nature of series [6]: Plasma clearance in dog at 10 umol/kg, iv. The format is ADME, organism-based, Canis lupus familiaris.
Series [7] is described as follows: Bioavailability in dog at 10 umol/kg, po. The format is ADME, organism-based, Canis lupus familiaris. Particulars: in vivo.
For series [8], the target named is Transient receptor potential cation channel subfamily V member 1 (Homo sapiens, UniProt Q8NER1). The series can be described thus: Antagonist activity at human TRPV1 by calcium influx assay. The format is functional.
Chain of Transient receptor potential cation channel subfamily V member 1 (Q8NER1 whole entry): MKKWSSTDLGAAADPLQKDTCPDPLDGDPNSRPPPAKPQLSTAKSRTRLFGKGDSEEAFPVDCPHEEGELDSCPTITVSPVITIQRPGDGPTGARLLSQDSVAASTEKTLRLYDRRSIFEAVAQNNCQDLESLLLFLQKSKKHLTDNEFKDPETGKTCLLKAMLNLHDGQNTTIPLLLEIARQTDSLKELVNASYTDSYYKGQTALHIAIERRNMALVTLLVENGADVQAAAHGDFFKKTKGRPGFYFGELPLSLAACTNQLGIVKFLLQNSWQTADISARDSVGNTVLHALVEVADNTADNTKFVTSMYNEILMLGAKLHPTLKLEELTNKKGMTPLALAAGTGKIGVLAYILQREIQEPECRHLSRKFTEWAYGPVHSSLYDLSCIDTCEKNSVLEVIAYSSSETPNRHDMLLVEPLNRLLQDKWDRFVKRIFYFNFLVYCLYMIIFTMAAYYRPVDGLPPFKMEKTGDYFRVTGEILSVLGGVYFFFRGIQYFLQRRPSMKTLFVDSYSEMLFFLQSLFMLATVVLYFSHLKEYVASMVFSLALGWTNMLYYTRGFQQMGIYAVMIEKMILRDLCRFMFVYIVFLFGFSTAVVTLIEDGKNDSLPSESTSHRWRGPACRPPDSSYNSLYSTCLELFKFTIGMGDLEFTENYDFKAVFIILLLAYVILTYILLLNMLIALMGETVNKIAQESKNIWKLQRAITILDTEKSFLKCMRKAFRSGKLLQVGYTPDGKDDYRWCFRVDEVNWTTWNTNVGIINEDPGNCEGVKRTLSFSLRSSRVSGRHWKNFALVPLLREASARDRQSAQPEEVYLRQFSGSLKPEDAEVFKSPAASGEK
Series [9] can be described thus: Bioavailability in rat at 10 umol/kg, po. The format is ADME, organism-based. Particulars: in vivo.

Structures are written as SMILES.

Experimental findings from ChEMBL document CHEMBL1145370, “Alpha-methylation at benzylic fragment of N-aryl-N'-benzyl ureas provides TRPV1 antagonists with better pharmacokinetic properties and higher efficacy in inflammatory pain model” (Bioorg Med Chem Lett, 2007) are described below.

One may read the half-life as how long it takes for the measured level to halve. In general, clearance refers to the rate of elimination divided by the concentration. Lower therefore signals inefficient removal. As a reminder, the bioavailability is the share of a dose that reaches the circulation, judged against a reference dose that is usually intravenous. Read a low bioavailability as poor availability. For the compound `O=C(NCc1ccc(C(F)(F)F)cc1)Nc1cccc2cnccc12`, the half-life in [1] was 0.6 h; in series [2], 1 h. Besides, the Vd is 0.6 L/kg in [3] and 0.5 L/kg in series [4]. Besides, the clearance in series [5] was 10 mL/min/kg; in [6], 6.67 mL/min/kg. The compound also had a bioavailability in [7] of 32%.

As a reminder, the IC50 is the concentration at which inhibition is half-maximal. Turning to `CC(NC(=O)Nc1cccc2cnccc12)c1ccc(C(F)(F)F)cc1` (stereo not given), in series [8], the IC50 was 22 nM. Also, the half-life in [1] was 1.1 h; in series [2] it was 1.6 h. The Vd in series [3] and in [4] was 1.1 L/kg in each case. For the same compound, the clearance was 11.7 mL/min/kg in [5] and 8.33 mL/min/kg in series [6]. In addition, the results for the bioavailability in [9] and in [7] were 47% and 98%, respectively.

In the case of `C[C@H](NC(=O)Nc1cccc2[nH]ncc12)c1cccc2ccccc12`, the IC50 in series [8] turned out to be 3750 nM.

As for `CCC(NC(=O)Nc1cccc2cnccc12)c1ccccc1` (stereo not given), the IC50 in [8] worked out at 2580 nM.

Turning to `CC(C)(C)c1ccc(C(NC(=O)Nc2cccc3cnccc23)c2ccccc2)cc1` (stereo not given), the IC50 in [8] is 125 nM.

With `CCC(NC(=O)Nc1cccc2cnccc12)c1ccc(C(F)(F)F)c(F)c1` (stereo not given), the IC50 in [8] was 109 nM.

Take `CC(NC(=O)Nc1cccc2cnccc12)c1ccc(C(C)(C)C)cc1C(C)(C)C` (stereo not given): in [8], the IC50 was determined as 17 nM.

For the compound `C[C@@H](NC(=O)Nc1cccc2[nH]ncc12)c1cccc2ccccc12`, in [8], the IC50 is 123 nM.

With `CC(C)(NC(=O)Nc1cccc2cnccc12)c1ccc(Cl)cc1`, the IC50 in series [8] came out at 143 nM.

On to `Cc1ccc([C@@H](C)NC(=O)Nc2cccc3[nH]ncc23)cc1`, for which the IC50 in series [8] came to 73 nM.

With `N#CCC(NC(=O)Nc1cccc2cnccc12)c1ccccc1` (stereo not given), the IC50 in series [8] came out at 15900 nM.

With `Cc1ccc([C@H](C)NC(=O)Nc2cccc3[nH]ncc23)cc1`, the IC50 in series [8] stood at 749 nM.

As to `O=C(Nc1cccc2cnccc12)NC(c1ccc(C(F)(F)F)cc1)C1CCCC1` (stereo not given), in series [8], the IC50 stood at 476 nM.

With `CN(C)CC(NC(=O)Nc1cccc2cnccc12)c1ccccc1` (stereo not given), the IC50 in [8] worked out at 31000 nM.

`CC(NC(=O)Nc1cccc2cnccc12)c1ccc(C(F)(F)F)c(F)c1` (stereo not given): the IC50 in series [8] is 19 nM.

As for `O=C(Nc1cccc2cnccc12)NC(c1ccc(C(F)(F)F)cc1)C1CC1` (stereo not given), the concentration for half-maximal inhibition (IC50) in [8] was 149 nM.

Consider `O=C(Nc1cccc2cnccc12)NC(c1ccccc1)c1ccccc1`, for which, in [8], the IC50 amounted to 600 nM.

`CC(C)(NC(=O)Nc1cccc2cnccc12)c1ccc(C(F)(F)F)cc1`: the IC50 in series [8] was determined as 94 nM.

Regarding `Cc1cc(C(C)(C)C)ccc1C(C)NC(=O)Nc1cccc2cnccc12` (stereo not given), the IC50 in series [8] came to 46 nM.

For the compound `O=C(Nc1cccc2cnccc12)NC(c1ccccc1)c1ccc(C(F)(F)F)cc1` (stereo not given), the IC50 in [8] came to 147 nM.

Turning to `CC(NC(=O)Nc1cccc2[nH]ncc12)c1ccc(C(F)(F)F)cc1` (racemic), the IC50 in [8] was 47 nM.

Consider `CC(NC(=O)Nc1cccc2cnccc12)c1ccc(C(C)(C)C)cc1` (stereo not given), for which the IC50 in series [8] stood at 24 nM.

For `O=C(Nc1cccc2cnccc12)NC(c1ccccc1)c1ccc(N2CCCCC2)cc1` (stereo not given), the IC50 in series [8] is 171 nM.

For `O=C(Nc1cccc2cnccc12)NC(c1ccc(C(F)(F)F)cc1)C1CCCCC1` (stereo not given), in [8], the IC50 was 287 nM.

Consider `CC(NC(=O)Nc1cccc2cnccc12)c1ccc(Br)cc1` (stereo not given), for which the IC50 in series [8] amounted to 26 nM.

Turning to `CCc1cc(C(C)(C)C)ccc1C(C)NC(=O)Nc1cccc2cnccc12` (stereo not given), the IC50 in [8] worked out at 20 nM.

For `C[C@@H](NC(=O)Nc1cccc2[nH]ncc12)c1ccc(C(F)(F)F)cc1`, the IC50 in [8] amounted to 41 nM. In [1], this compound gave a half-life of 2.1 h. For the same compound, the Vd in series [3] was 2.9 L/kg. The same compound registered a bioavailability in [9] of 53%.

Turning to `C[C@H](NC(=O)Nc1cccc2[nH]ncc12)c1ccc(C(F)(F)F)cc1`, the IC50 in series [8] is 248 nM.
